Measurements published in ChEMBL document CHEMBL1136677, “Dermorphin tetrapeptide analogues with 2',6'-dimethylphenylalanine (Dmp) substituted for aromatic amino acids have high mu opioid receptor binding and biological activities” (Bioorg Med Chem Lett, 2003).

What was measured:
[1] = target: Delta-type opioid receptor (Rattus norvegicus) (UniProt P33533); experiment: (§1) Selectivity ratio of binding affinity of delta opioid receptor to mu opioid receptor
[2] = target: Delta-type opioid receptor (Mus musculus) (UniProt P32300); details: Vas deferens
Delta-type opioid receptor (Mus musculus), sequence (P32300 whole entry): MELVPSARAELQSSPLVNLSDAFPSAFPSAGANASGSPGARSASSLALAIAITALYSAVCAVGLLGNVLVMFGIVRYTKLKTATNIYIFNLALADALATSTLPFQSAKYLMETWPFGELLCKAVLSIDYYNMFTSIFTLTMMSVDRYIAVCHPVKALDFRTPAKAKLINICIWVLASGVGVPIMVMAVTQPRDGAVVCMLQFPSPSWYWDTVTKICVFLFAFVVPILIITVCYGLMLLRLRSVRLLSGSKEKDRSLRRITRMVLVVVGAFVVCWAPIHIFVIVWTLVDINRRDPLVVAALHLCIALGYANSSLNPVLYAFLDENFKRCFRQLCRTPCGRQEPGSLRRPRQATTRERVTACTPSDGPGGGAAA
Description: Affinity towards delta opioid receptor using CTAP as antagonist in mouse vas deferens

Mu-type opioid receptor [3] = target: Mu-type opioid receptor (Cavia porcellus, UniProt P97266); experiment: Ability to inhibit electrically induced contractions of guinea pig ileum having mu opioid receptors tested in vitro; assay type: tissue-based
Mu-type opioid receptor (Cavia porcellus, UniProt P97266), sequence (P97266 whole entry): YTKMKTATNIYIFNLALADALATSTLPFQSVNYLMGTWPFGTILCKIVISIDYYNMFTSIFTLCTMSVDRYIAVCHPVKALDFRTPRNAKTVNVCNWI

[4] = target: Mu-type opioid receptor (Cavia porcellus) (UniProt P97266); experiment: Affinity towards mu opioid receptor using CTAP as antagonist in guinea pig ileum; assay type: functional, tissue-based
Mu-type opioid receptor (Cavia porcellus), sequence (P97266 whole entry): as above

[5] = target: Delta-type opioid receptor (Mus musculus) (UniProt P32300); details: Vas deferens; remark: listed apart in the source
Description: Affinity towards delta opioid receptor using N,N(Me)2Dmt-Tic-OH as antagonist in mouse vas deferens

Mu-type opioid receptor [6] = target: Mu-type opioid receptor (Rattus norvegicus, UniProt P33535); experiment: Ability to displace [3H]DAMGO from mu opioid receptor
Mu-type opioid receptor (Rattus norvegicus, UniProt P33535), sequence (P33535 whole entry): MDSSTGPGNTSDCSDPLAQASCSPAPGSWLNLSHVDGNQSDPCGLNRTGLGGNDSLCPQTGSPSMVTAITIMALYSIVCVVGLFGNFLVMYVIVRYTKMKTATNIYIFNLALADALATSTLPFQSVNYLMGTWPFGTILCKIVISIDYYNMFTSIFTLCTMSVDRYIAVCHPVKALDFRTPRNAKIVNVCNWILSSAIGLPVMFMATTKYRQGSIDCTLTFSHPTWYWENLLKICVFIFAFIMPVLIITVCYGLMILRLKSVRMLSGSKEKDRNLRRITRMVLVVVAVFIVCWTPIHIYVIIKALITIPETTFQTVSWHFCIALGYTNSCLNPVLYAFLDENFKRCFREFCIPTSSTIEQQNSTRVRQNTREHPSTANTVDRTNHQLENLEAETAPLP

[7] = target: Delta-type opioid receptor (Rattus norvegicus, UniProt P33533); experiment: Ability to displace [3H]-deltorphin II from delta opioid receptor
Delta-type opioid receptor (Rattus norvegicus, UniProt P33533), sequence (P33533 whole entry): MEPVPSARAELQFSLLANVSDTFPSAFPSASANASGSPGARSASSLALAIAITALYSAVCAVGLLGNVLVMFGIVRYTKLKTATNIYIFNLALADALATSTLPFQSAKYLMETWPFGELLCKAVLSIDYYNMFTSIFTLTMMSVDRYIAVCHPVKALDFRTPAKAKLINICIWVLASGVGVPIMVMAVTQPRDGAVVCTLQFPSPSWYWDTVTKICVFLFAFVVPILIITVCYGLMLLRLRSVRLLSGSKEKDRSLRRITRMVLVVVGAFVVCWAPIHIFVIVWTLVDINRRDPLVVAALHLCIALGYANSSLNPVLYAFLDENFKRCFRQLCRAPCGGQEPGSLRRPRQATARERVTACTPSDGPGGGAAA

[8] = target: Delta-type opioid receptor (Mus musculus, UniProt P32300); experiment: Ability to inhibit electrically induced contractions of mouse vas deferens having delta opioid receptors tested in vitro; assay type: tissue-based
Delta-type opioid receptor (Mus musculus, UniProt P32300), sequence (P32300 whole entry): as the sequence (P32300 whole entry) above

[9] = target: Delta-type opioid receptor (Mus musculus) (UniProt P32300); experiment: Selectivity ratio of IC50(MVD) to IC50(GPI) was determined
[10] = target: Prothrombin (Homo sapiens) (UniProt P00734); experiment: as §1
Mus musculus [11] = experiment: Antinociceptive activity in mice after subcutaneous injection in the first phase of formalin test; assay type: functional; details: sc
Mus musculus [12] = experiment: Antinociceptive activity in mice after subcutaneous injection in the second phase of formalin test; assay type: functional; details: sc

Delta-type opioid receptor (Rattus norvegicus), sequence (P33533 whole entry): as the sequence (P33533 whole entry) above

Row | Structure (SMILES) | Ratio [1] | Ke [2] [nM] | IC50 (Mu-type opioid receptor [3]) [nM] | Ke [4] [nM] | Ke [5] [nM] | Ki (Mu-type opioid receptor [6]) [nM] | Ki [7] [nM] | IC50 [8] [nM] | Ratio [9] | Ratio [10] | ED50 (Mus musculus [11]) [µmol/kg] | ED50 (Mus musculus [12]) [µmol/kg]
1 | Cc1cccc(C)c1C[C@H](NC(=O)[C@@H](CCCN=C(N)N)NC(=O)[C@@H](N)Cc1c(C)cccc1C)C(=O)NCCC(N)=O | 78100 | 10.2 | 2.76 | 21.3 | > 1000 | 0.0216 | 1690 | 50.1 | 18.2 | – | – | –
2 | Cc1cc(O)cc(C)c1C[C@H](N)C(=O)N[C@H](CCCN=C(N)N)C(=O)N[C@@H](Cc1ccccc1)C(=O)NCCC(N)=O | 551 | – | 0.034 | – | – | 0.00205 | 1.13 | 0.398 | 11.7 | – | – | –
3 | Cc1cccc(C)c1C[C@@H](NC(=O)[C@@H](CCCN=C(N)N)NC(=O)[C@@H](N)Cc1ccc(O)cc1)C(=O)NCCC(N)=O | > 45700 | – | 19.8 | – | – | 0.0618 | > 2820 | 305 | 15.4 | – | – | –
4 | NC(=O)CCNC(=O)[C@H](Cc1ccccc1)NC(=O)[C@@H](CCCN=C(N)N)NC(=O)[C@@H](N)Cc1ccccc1 | > 393 | – | 633 | – | – | 7.17 | > 2820 | 7140 | 11.2 | – | – | –
5 | CC(C)[C@H](NC(=O)[C@H](CCC(=O)O)NC(=O)[C@H](Cc1ccccc1)NC(=O)[C@H](C)NC(=O)[C@@H](N)Cc1ccc(O)cc1)C(=O)N[C@H](C(=O)NCC(=O)O)C(C)C | – | > 1000 | – | – | 0.64 | – | – | – | – | – | – | –
6 | Cc1cccc(C)c1C[C@H](NC(=O)[C@@H](CCCN=C(N)N)NC(=O)[C@@H](N)Cc1ccc(O)cc1)C(=O)NCCC(N)=O | – | 11.4 | 1.67 | 22.7 | > 1000 | 0.035 | 544 | 27.9 | 16.7 | 15500 | 0.0986 | 0.113
7 | CN1CC[C@]23c4c5ccc(O)c4O[C@H]2[C@@H](O)C=C[C@H]3[C@H]1C5 [MORPHINE] | – | – | – | – | – | – | – | – | – | – | 3.81 | 7.32
8 | Cc1cccc(C)c1C[C@@H](N)C(=O)N[C@H](CCCN=C(N)N)C(=O)N[C@@H](Cc1ccccc1)C(=O)NCCC(N)=O | > 370 | – | – | – | – | – | – | – | 4.6 | – | – | –
9 | NC(=O)CCNC(=O)[C@H](Cc1ccccc1)NC(=O)[C@@H](CCCN=C(N)N)NC(=O)[C@@H](N)Cc1ccc(O)cc1 | 2800 | 21.2 | – | 26.8 | > 1000 | – | – | – | 21.8 | – | 0.628 | 0.514
10 | Cc1cccc(C)c1C[C@@H](N)C(=O)N[C@H](CCCNC(=N)N)C(=O)N[C@@H](Cc1ccccc1)C(=O)NCCC(N)=O | – | – | 320 | – | – | 7.62 | > 2820 | 1470 | – | – | – | –
11 | N=C(N)NCCC[C@@H](NC(=O)[C@@H](N)Cc1ccc(O)cc1)C(=O)N[C@@H](Cc1ccccc1)C(=O)NCCC(N)=O | – | – | 5.31 | – | – | 0.172 | 482 | 116 | – | – | – | –
12 | Cc1cccc(C)c1C[C@H](N)C(=O)N[C@H](CCCN=C(N)N)C(=O)N[C@@H](Cc1ccccc1)C(=O)NCCC(N)=O | 41300 | 13.4 | 9.88 | 25.1 | > 1000 | 0.0623 | 2570 | 188 | 19 | – | 1.95 | 1.53
